This note sets out measurements from US20240124504A1, “AROMATIC HETEROCYCLIC COMPOUND, AND PHARMACEUTICAL COMPOSITION AND APPLICATION THEREOF” (GT APEIRON THERAPEUTICS LIMITED, priority 2020, published 2024).

For one assay, the system named is ovarian cancer A2780. Nature of the assay: Cell biological activity detection (CyQuant, 72 hours), A2780. The assay is classed as cell-based, human. The settings on record: A2780 cells, incubation for 72 hours. The method, boiled down:
(§1)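 A2780 and HCC70 cells seeded at 2000/well in RPMI 1640 + 10% FBS, treated next day with 9-point compound dilutions (top 10 μM, 1:4; 0.2% DMSO) for 72 h at 37 °C. Cell number read by CyQuant Direct nucleic acid stain (ex 488 nm); IC50 from dose–response fit.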

Assay [1] concerns human breast cancer cells HCC70. Nature of the assay: Cell biological activity detection (CyQuant, 72 hours), HCC70. The settings on record: incubation for 72 hours. Type of assay: cell-based. The method, boiled down: as §1
Assay [2] concerns the target T1, CDK12 (aa686-1082)/cyclinK complex (Homo sapiens, UniProt Q9NYV4).
T1 construct: A CDK12 (aa686-1082)/cyclinK complex (50 nM)
Nature of the assay: In-vitro enzymatic inhibitory activity testing, CDK12 inhibition assay (Caliper EZ Reader II). Type of assay: biochemical. The settings on record: CDK12/cyclinK 50 nM, 180 min at 27° C.; read-out: CDK12 IC50. A digest of the protocol:
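Caliper EZ Reader II mobility-shift separation of 5-FAM-CDK9tide substrate (2 μM) from phosphoproduct, using 50 nM CDK12 (aa686-1082)/cyclinK in 80 mM MES pH 6.5, 10 mM MgCl2, 0.01% Tween 20, 50 ug/mL BSA. Compound pre-incubated 10 min with enzyme, then substrate/ATP added for 180 min at 27° C; EDTA stop. IC50 by nonlinear dose-response regression.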

T1 sequence (Q9NYV4 686-1082, species assumed): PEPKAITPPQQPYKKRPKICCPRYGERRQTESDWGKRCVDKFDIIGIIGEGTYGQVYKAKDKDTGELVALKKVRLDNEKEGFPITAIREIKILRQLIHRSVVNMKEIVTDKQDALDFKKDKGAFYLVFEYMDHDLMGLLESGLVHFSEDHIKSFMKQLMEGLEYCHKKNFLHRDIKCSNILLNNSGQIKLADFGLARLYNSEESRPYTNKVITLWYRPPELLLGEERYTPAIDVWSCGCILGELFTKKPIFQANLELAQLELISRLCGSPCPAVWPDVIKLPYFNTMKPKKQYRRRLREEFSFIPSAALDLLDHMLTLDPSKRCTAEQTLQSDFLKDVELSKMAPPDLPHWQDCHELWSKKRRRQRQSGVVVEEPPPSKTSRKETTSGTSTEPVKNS
T1 sequence (O75909 whole entry partner, species assumed, the tested form may be a part): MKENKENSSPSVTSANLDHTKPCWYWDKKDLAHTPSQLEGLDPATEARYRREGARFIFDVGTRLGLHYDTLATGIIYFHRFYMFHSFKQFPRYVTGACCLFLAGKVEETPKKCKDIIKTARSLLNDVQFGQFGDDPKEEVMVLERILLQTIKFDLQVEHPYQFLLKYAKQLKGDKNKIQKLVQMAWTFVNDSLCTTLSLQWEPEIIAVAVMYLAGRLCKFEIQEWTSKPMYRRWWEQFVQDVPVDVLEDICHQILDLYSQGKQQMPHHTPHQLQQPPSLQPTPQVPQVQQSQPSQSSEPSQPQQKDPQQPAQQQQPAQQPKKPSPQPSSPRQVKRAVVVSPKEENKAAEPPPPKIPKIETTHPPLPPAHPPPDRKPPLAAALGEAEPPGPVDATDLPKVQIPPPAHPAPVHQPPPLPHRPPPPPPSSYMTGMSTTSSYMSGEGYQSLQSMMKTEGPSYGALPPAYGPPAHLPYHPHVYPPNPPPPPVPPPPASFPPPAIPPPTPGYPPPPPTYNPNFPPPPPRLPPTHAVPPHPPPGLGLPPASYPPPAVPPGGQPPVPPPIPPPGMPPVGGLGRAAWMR

In the case of `CP(C)(=O)c1cccc2c(-c3nc(NC4(CO)CC(F)C4)ncc3C(F)(F)F)c[nH]c12` (stereo not drawn) [Compound 105, (3-(2-((3-fluoro-1-(hydroxymethyl)cyclobutyl)amino)-5-(trifluoromethyl)pyrimidin-4-yl)-1H-indole-7-yl)dimethylphosphine oxide], the IC50 was 20 to 200 nM in the assay on ovarian cancer A2780 (Homo sapiens, A2780, 72 h); 20 to 200 nM in assay [1] (Homo sapiens, HCC70, 72 h); over 50000 nM in assay [2].

`CP(C)(=O)c1cccc2c(-c3nc(NC4(CO)CCC4)ncc3C(F)(F)F)c[nH]c12` [Compound 168, (3-(2-((1-(hydroxymethyl)cyclobutyl)amino)-5-(trifluoromethyl)pyrimidin-4-yl)-1H-indole-7-yl)dimethylphosphine oxide]: the IC50 with ovarian cancer A2780 (Homo sapiens, A2780, 72 h) is 20 to 200 nM; in assay [1] (Homo sapiens, HCC70, 72 h), 20 to 200 nM; in assay [2], over 50000 nM.

For `CP(C)(=O)c1cccc2c(-c3nc(NCC4CC(O)C4)ncc3C(F)(F)F)c[nH]c12` (stereo not drawn) [Compound 126, (3-(2-(((3-hydroxycyclobutyl)methyl)amino)-5-(trifluoromethyl)pyrimidin-4-yl)-1H-indole-7-yl)dimethylphosphine oxide], the IC50 with ovarian cancer A2780 (Homo sapiens, A2780, 72 h) is 20 to 200 nM; in assay [1] (Homo sapiens, HCC70, 72 h), 20 to 200 nM; in assay [2], over 50000 nM.

With `CC(O)[C@H](C)Nc1ncc(C(F)(F)F)c(-c2c[nH]c3c(P(C)(C)=O)cccc23)n1` (single isomer, unassigned) [Compound 129], the IC50 is 20 to 200 nM in the assay with ovarian cancer A2780 (Homo sapiens, A2780, 72 h); 20 to 200 nM in assay [1] (Homo sapiens, HCC70, 72 h); over 50000 nM in assay [2].

In the case of `CC(O)[C@H](C)Nc1ncc(C(F)(F)F)c(-c2c[nH]c3c(P(C)(C)=O)cccc23)n1` (single isomer, unassigned) [Compound 130], the half-inhibitory concentration (IC50) in the assay with ovarian cancer A2780 is 20 to 200 nM; in assay [1] it was 20 to 200 nM; in assay [2] it was over 50000 nM.

Regarding `CC(CO)CNc1ncc(C(F)(F)F)c(-c2c[nH]c3c(P(C)(C)=O)cccc23)n1` (single isomer, unassigned) [Compound 150], the IC50 with ovarian cancer A2780 is 20 to 200 nM; in assay [1], under 20 nM; in assay [2] it was over 50000 nM.

For the molecule `C[C@@H](CO)Nc1ncc(Cl)c(-c2c[nH]c3c(P(C)(C)=O)cccc23)n1` [Compound 103, (S)-(3-(5-chloro-2-((1-hydroxypropan-2-yl)amino)pyrimidin-4-yl)-1H-indole-7-yl)dimethylphosphine oxide], the concentration for half-maximal inhibition (IC50) in the assay on ovarian cancer A2780 (Homo sapiens, A2780, 72 h) is 20 to 200 nM; in assay [1] (Homo sapiens, HCC70, 72 h) it was 20 to 200 nM; in assay [2], over 50000 nM.

`CP(C)(=O)c1cccc2c(-c3nc(N[C@@H]4CC[C@H]4O)ncc3C(F)(F)F)c[nH]c12` [Compound 153, (3-(2-(((1R,2R)-2-hydroxycyclobutyl)amino)-5-(trifluoromethyl)pyrimidin-4-yl)-1hydro-indole-7-yl)dimethylphosphine oxide]: the IC50 with ovarian cancer A2780 (Homo sapiens, A2780, 72 h) is 20 to 200 nM; in assay [1] (Homo sapiens, HCC70, 72 h), under 20 nM; in assay [2], over 50000 nM.

As to `C[C@@H](CO)Nc1ncc(C(F)(F)F)c(-c2c[nH]c3c(P(C)(C)=O)cccc23)n1` [Compound 82, (S)-(3-(2-((1-hydroxypropyl-2-yl)amino)-5-(trifluoromethyl)pyrimidin-4-yl)-1H-indole-7-yl)dimethylphosphine oxide], the IC50 in the assay on ovarian cancer A2780 (Homo sapiens, A2780, 72 h) was under 20 nM; in assay [1] (Homo sapiens, HCC70, 72 h) it was under 20 nM; in assay [2], 5000 to 50000 nM.

As to `CP(C)(=O)c1cccc2c(-c3nc(N[C@H]4CCC[C@@H]4O)ncc3C(F)(F)F)c[nH]c12` [Compound 155, (3-(2-(((1S,2S)-2-hydroxycyclopentyl)amino)-5-(trifluoromethyl)pyrimidin-4-yl)-1hydro-indole-7-yl)dimethylphosphine oxide], the concentration for half-maximal inhibition (IC50) is under 20 nM with ovarian cancer A2780 (Homo sapiens, A2780, 72 h); under 20 nM in assay [1] (Homo sapiens, HCC70, 72 h); 5000 to 50000 nM in assay [2].

With `CP(C)(=O)c1cccc2c(-c3nc(NC4(CO)CC4)ncc3C(F)(F)F)c[nH]c12` [Compound 94, (3-(2-((1-(hydroxymethyl)cyclopropyl)amino)-5-(trifluoromethyl)pyrimidin-4-yl)-1H-indole-7-yl)dimethylphosphine oxide], the half-inhibitory concentration (IC50) in the assay on ovarian cancer A2780 (Homo sapiens, A2780, 72 h) was under 20 nM; in assay [1] (Homo sapiens, HCC70, 72 h), 20 to 200 nM; in assay [2], over 50000 nM.

As for `C[C@H](CO)Nc1ncc(C(F)(F)F)c(-c2c[nH]c3c(P(C)(C)=O)cccc23)n1` [Compound 93, (R)-(3-(2-((1-hydroxypropyl-2-yl)amino)-5-(trifluoromethyl)pyrimidin-4-yl)-1H-indole-7-yl)dimethylphosphine oxide], the 50% inhibitory concentration (IC50) is under 20 nM in the assay with ovarian cancer A2780 (Homo sapiens, A2780, 72 h); under 20 nM in assay [1] (Homo sapiens, HCC70, 72 h); 5000 to 50000 nM in assay [2].

For `CP(C)(=O)c1cccc2c(-c3nc(NCCO)ncc3C(F)(F)F)c[nH]c12` [Compound 97, (3-(2-((2-hydroxyethyl)amino)-5-(trifluoromethyl)pyrimidin-4-yl)-1H-indole-7-yl)dimethylphosphine oxide], the concentration for half-maximal inhibition (IC50) was under 20 nM in the assay with ovarian cancer A2780 (Homo sapiens, A2780, 72 h); 20 to 200 nM in assay [1] (Homo sapiens, HCC70, 72 h); over 50000 nM in assay [2].

For the molecule `CP(C)(=O)c1cccc2c(-c3nc(N[C@@H]4CCC[C@H]4O)ncc3C(F)(F)F)c[nH]c12` [Compound 156], the IC50 was 20 to 200 nM in the assay with ovarian cancer A2780 (Homo sapiens, A2780, 72 h); under 20 nM in assay [1] (Homo sapiens, HCC70, 72 h); 5000 to 50000 nM in assay [2].

As to `CP(C)(=O)c1cccc2c(-c3nc(N[C@H]4CC[C@H](O)C4)ncc3C(F)(F)F)c[nH]c12` [Compound 83], the 50% inhibitory concentration (IC50) with ovarian cancer A2780 (Homo sapiens, A2780, 72 h) was under 20 nM; in assay [1] (Homo sapiens, HCC70, 72 h), under 20 nM; in assay [2] it was 5000 to 50000 nM.

With `CC1(C)COCC(Nc2ncc(C(F)(F)F)c(-c3c[nH]c4c(P(C)(C)=O)cccc34)n2)CN1` (single isomer, unassigned) [Compound 91, (3-(2-((3,3-dimethyl-1,4-oxazepan-6-yl)amino)-5-(trifluoromethyl)pyrimidin-4-yl)-1H-indole-7-yl)dimethylphosphine oxide], the concentration for half-maximal inhibition (IC50) in the assay on ovarian cancer A2780 (Homo sapiens, A2780, 72 h) was under 20 nM; in assay [1] (Homo sapiens, HCC70, 72 h) it was 20 to 200 nM; in assay [2] it was 5000 to 50000 nM.

Turning to `CP(C)(=O)c1cccc2c(-c3nc(NCCCO)ncc3C(F)(F)F)c[nH]c12` [Compound 89, (3-(2-((3-hydroxypropyl)amino)-5-(trifluoromethyl)pyrimidin-4-yl)-1H-indole-7-yl)dimethylphosphine oxide], the half-maximal inhibitory concentration (IC50) in the assay on ovarian cancer A2780 (Homo sapiens, A2780, 72 h) is under 20 nM; in assay [1] (Homo sapiens, HCC70, 72 h) it was under 20 nM; in assay [2], over 50000 nM.

As to `CN(C)[C@H]1CC[C@H](Nc2ncc(C(F)(F)F)c(-c3c[nH]c4c(P(C)(C)=O)cccc34)n2)C1` [Compound 137, (3-(2-(((1S,3S)-3-(dimethylamino)cyclopentyl)amino)-5-(trifluoromethyl)pyrimidin-4-yl)-1H-indole-7-yl)dimethylphosphine oxide], the half-maximal inhibitory concentration (IC50) with ovarian cancer A2780 (Homo sapiens, A2780, 72 h) is under 20 nM; in assay [1] (Homo sapiens, HCC70, 72 h), under 20 nM; in assay [2], 200 to 5000 nM.

For the molecule `CP(C)(=O)c1cccc2c(-c3nc(NCC4CC4CO)ncc3C(F)(F)F)c[nH]c12` (single isomer, unassigned) [Compound 144], the IC50 in the assay on ovarian cancer A2780 was 20 to 200 nM; in assay [1], 20 to 200 nM; in assay [2], over 50000 nM.

In the case of `C[C@@H](CO)Nc1ncc(C(F)(F)F)c(-c2c[nH]c3c(P(C)(C)=O)c(F)ccc23)n1` [Compound 195], the half-inhibitory concentration (IC50) is under 20 nM in the assay on ovarian cancer A2780 (Homo sapiens, A2780, 72 h); under 20 nM in assay [1] (Homo sapiens, HCC70, 72 h); 5000 to 50000 nM in assay [2].

Turning to `CP(C)(=O)c1cccc2c(-c3nc(N[C@H]4COC[C@@H]4O)ncc3C(F)(F)F)c[nH]c12` [Compound 87], the half-maximal inhibitory concentration (IC50) in the assay on ovarian cancer A2780 (Homo sapiens, A2780, 72 h) was under 20 nM; in assay [1] (Homo sapiens, HCC70, 72 h) it was under 20 nM; in assay [2], over 50000 nM.

Turning to `CP(C)(=O)c1cccc2c(-c3nc(NC4(CO)CCOC4)ncc3C(F)(F)F)c[nH]c12` (single isomer, unassigned) [Compound 118], the 50% inhibitory concentration (IC50) is under 20 nM in the assay on ovarian cancer A2780 (Homo sapiens, A2780, 72 h); under 20 nM in assay [1] (Homo sapiens, HCC70, 72 h); over 50000 nM in assay [2].

As to `CP(C)(=O)c1cccc2c(-c3nc(NC4(CO)CCOC4)ncc3C(F)(F)F)c[nH]c12` (single isomer, unassigned) [Compound 119], the results for the half-maximal inhibitory concentration (IC50) (in the assay with ovarian cancer A2780; in assay [1]; in assay [2]) were 20 to 200 nM, 20 to 200 nM and over 50000 nM, respectively.

In the case of `CP(C)(=O)c1cccc2c(-c3nc(NC[C@H]4C[C@](C)(O)C4)ncc3C(F)(F)F)c[nH]c12` [Compound 127, (3-(2-(((trans-3-hydroxy-3-methylcyclobutyl)methyl)amino)-5-(trifluoromethyl)pyrimidin-4-yl)-1H-indole-7-yl)dimethylphosphine oxide], the 50% inhibitory concentration (IC50) was under 20 nM in the assay with ovarian cancer A2780 (Homo sapiens, A2780, 72 h); under 20 nM in assay [1] (Homo sapiens, HCC70, 72 h); over 50000 nM in assay [2].

For `C[C@@H](CO)Nc1ncc(C(F)(F)F)c(-c2c[nH]c3c(P(C)(C)=O)c(C#N)ccc23)n1` [Compound 79, (S)-7-(dimethylphosphoryl)-3-(2-((1-hydroxy-propan-2-yl)amino)-5-(trifluoromethyl)pyrimidin-4-yl)-1H-indole-6-carbonitrile], the 50% inhibitory concentration (IC50) is under 20 nM with ovarian cancer A2780 (Homo sapiens, A2780, 72 h); 20 to 200 nM in assay [1] (Homo sapiens, HCC70, 72 h); over 50000 nM in assay [2].

With `CC(C)(CO)Nc1ncc(C(F)(F)F)c(-c2c[nH]c3c(P(C)(C)=O)cccc23)n1` [Compound 85, (3-(2-((1-hydroxy-2-methylpropan-2-yl)amino)-5-(trifluoromethyl)pyrimidin-4-yl)-1H-indole-7-yl)dimethylphosphine oxide], the IC50 with ovarian cancer A2780 (Homo sapiens, A2780, 72 h) was under 20 nM; in assay [1] (Homo sapiens, HCC70, 72 h), 20 to 200 nM; in assay [2], over 50000 nM.

A word on the IC50: it is the midpoint of a concentration-inhibition curve.
